{
  "source": "PubChem BioAssay (NCI)",
  "note": "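A five-concentration, 48-hour dose response in 96-well plates underlies each endpoint, interpolated linearly between surrounding concentrations. At the GI50, growth is halved. At the TGI there is no net growth.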",
  "data": [
    {"system": "DU-145 prostate", "experiment": "DTP human tumour cell line panel, 48 h", "units": {"TGI": "µM", "GI50": "µM"}, "values": [
      {"smiles": "N#Cc1nc2c(S(=O)(=O)c3ccc(Cl)cc3)c(N)n(Nc3cccc(Cl)c3)c2nc1C#N", "TGI": "> 100"},
      {"smiles": "COC(=O)OC1C(O[C@H]2C[C@H]3[C@@H]4CC=C5C[C@@H](O)CC[C@]5(C)[C@H]4CC[C@]3(C)[C@H]2[C@H](C)C(=O)CCC(C)C)OCC(O)C1OC1OCC(O)C(O)C1OC(=O)c1ccc(OC)cc1", "note": "(some centres undefined)", "GI50": 0.0127, "TGI": 5.18},
      {"smiles": "O=C1/C(=C\\c2ccccc2)CN(C(=O)CCN2CCCCC2)C/C1=C/c1ccccc1", "TGI": 17.9},
      {"smiles": "CCCCCCCCCCCC[N+]1(CCCCCCCCCCCC)CCCC(C)C1", "note": "(centres undefined)", "GI50": 0.57, "TGI": 1.87}
    ]},
    {"system": "A549 NSCLC", "experiment": "DTP human tumour cell line panel, 48 h", "units": {"GI50": "µM", "TGI": "µM"}, "values": [
      {"smiles": "COc1ccc(OC)c(NCC(=O)n2nc(/C=C\\c3ccc(O)c(OC)c3)cc2/C=C\\c2ccc(O)c(OC)c2)c1", "GI50": 3.4, "TGI": 33.1},
      {"smiles": "Cc1nc2ccccc2nc1CC(=O)C(=O)Nc1ccc(Cl)cc1Cl", "TGI": "> 100"},
      {"smiles": "CC(Br)C(=O)NC(CO)C(=O)O", "note": "(centres undefined)", "TGI": "> 100"},
      {"smiles": "COc1cc(Nc2cnc3ccc(C(F)(F)F)cc3n2)cc(OC)c1OC", "TGI": "> 100"},
      {"smiles": "O=C1[C@@H]2C(c3c(Cl)cccc3Cl)=NO[C@@H]2C(=O)N1c1ccc(Cc2ccc(N3C(=O)[C@H]4C(c5c(Cl)cccc5Cl)=NO[C@H]4C3=O)cc2)cc1", "TGI": "> 100"},
      {"smiles": "O=C1NC2=C(CCCCC/C2=N\\O)C12CCCCCC2", "TGI": "> 100"},
      {"smiles": "CCc1cccc(C)c1NC(=O)CCc1nc(=S)[nH][nH]1", "TGI": "> 100"},
      {"smiles": "N#C/C(=C\\c1cc(OCc2ccccc2)c(OCc2ccccc2)cn1)C(N)=O", "TGI": "> 100"},
      {"smiles": "N#CC(C(=O)C(=O)Nc1c(Cl)cccc1Cl)c1ccccc1", "note": "(centres undefined)", "GI50": "> 100", "TGI": "> 100"},
      {"smiles": "COC(=O)C1C(C(=O)OC)C2C(=O)C3C(C(=O)OC)C(C(=O)OC)C3C(=O)C12", "note": "(centres undefined)", "TGI": "> 100"},
      {"smiles": "O=C(NC12CC3CCC1CC(C3)C2)[C@@H]1CCCN1C(=O)OCc1ccccc1", "note": "(some centres undefined)", "TGI": "> 100"},
      {"smiles": "O=C1NC(=O)c2c1n(Cc1ccccc1)c(=O)n2Cc1ccccc1", "TGI": "> 100"},
      {"smiles": "Cc1nc(N)nc(CCC(=O)Nc2cccc(C(F)(F)F)c2)c1-c1ccc(Cl)cc1", "TGI": "> 100"},
      {"smiles": "COc1cc([C@@H]2c3cc4c(cc3[C@@H](NC(=O)c3ccc(C#N)cc3)C3COC(=O)[C@@H]32)OCO4)cc(OC)c1O", "note": "(some centres undefined)", "TGI": 1.64},
      {"smiles": "O=[N+]([O-])c1cccc(C2=NN(c3ccccc3)C3c4cc(Br)ccc4OCC23)c1", "note": "(centres undefined)", "TGI": "> 100"},
      {"smiles": "COc1cc2oc(-c3ccc(O)cc3)cc(=O)c2c(O)c1C1OC(CO)C(O)C(O)C1O", "note": "(centres undefined)", "TGI": "> 100"},
      {"smiles": "C[C@]12Cc3cn[nH]c3C(=O)C1CC[C@@H]1C2CC[C@@]2(C)C1CC[C@@H]2O", "note": "(some centres undefined)", "TGI": "> 100"},
      {"smiles": "COc1ccc(OC)c(/C=C/c2nc(=S)n(-c3ccc(Cl)cc3)[nH]2)c1", "GI50": 9.07, "TGI": "> 100"},
      {"smiles": "CCn1cc(C(=O)O)c(=O)c2cc(F)c(N3CCN(S(=O)(=O)c4cccc5ccccc45)CC3)cc21", "GI50": 2.87, "TGI": "> 100"},
      {"smiles": "CCn1c2c(c3ccccc3c1=O)C(=O)c1ccccc1-2", "TGI": "> 100"},
      {"smiles": "NNC(=O)C(=O)N/N=C1/CCCC1C(=O)CCC(=O)Nc1ccc(Cl)cc1", "note": "(centres undefined)", "TGI": "> 100"},
      {"smiles": "COC(=O)CCC(NC(=S)N/N=C/c1cccs1)C(=O)OC", "note": "(centres undefined)", "TGI": "> 100"},
      {"smiles": "O=c1/c(=C/c2ccccc2[N+](=O)[O-])sc2nnc(-c3cccnc3)n12", "TGI": "> 100"},
      {"smiles": "O=[N+]([O-])c1ccc(Cl)c2c([N+](=O)[O-])cccc12", "TGI": "> 10"},
      {"smiles": "COC(=O)/C=C(/C(=O)OC)C1(C)c2cc(C(=O)OC)c(C(=O)OC)c(N)c2C(=N)N1c1ccccc1", "note": "(centres undefined)", "TGI": "> 100"},
      {"smiles": "CCN1C(=S)N(CC)C2C1NC(=S)N2/N=C/C=C/c1ccccc1OC", "note": "(centres undefined)", "GI50": 0.503, "TGI": "> 100"},
      {"smiles": "N#Cc1nc2c(S(=O)(=O)c3ccc(Cl)cc3)c(N)n(Nc3cccc(Cl)c3)c2nc1C#N", "TGI": "> 100"},
      {"smiles": "COC(=O)OC1C(O[C@H]2C[C@H]3[C@@H]4CC=C5C[C@@H](O)CC[C@]5(C)[C@H]4CC[C@]3(C)[C@H]2[C@H](C)C(=O)CCC(C)C)OCC(O)C1OC1OCC(O)C(O)C1OC(=O)c1ccc(OC)cc1", "note": "(some centres undefined)", "GI50": 0.0125, "TGI": 5.24},
      {"smiles": "CCOC(=O)c1nc(C)oc1C(F)(F)F", "TGI": "> 100"},
      {"smiles": "O=C1/C(=C\\c2ccccc2)CN(C(=O)CCN2CCCCC2)C/C1=C/c1ccccc1", "TGI": 10.9},
      {"smiles": "Cc1ccc(S(=O)(=O)OCC/C(=C\\[Si](C)(C)C)c2ccccc2)cc1", "TGI": "> 100"},
      {"smiles": "COc1nc2c(c(O)c(C)c(=O)n2OC2OCC(OC(C)=O)C(OC(C)=O)C2OC(C)=O)c(=O)n1C", "note": "(centres undefined)", "TGI": "> 100"},
      {"smiles": "CCc1ccccc1NC(=O)c1cccc([N+](=O)[O-])c1O", "TGI": "> 100"},
      {"smiles": "O=C(NC1C(=O)NNC1c1cccc([N+](=O)[O-])c1)c1ccccc1", "note": "(centres undefined)", "TGI": "> 100"},
      {"smiles": "CCCCCCCCCCCC[N+]1(CCCCCCCCCCCC)CCCC(C)C1", "note": "(centres undefined)", "GI50": 0.172, "TGI": 0.736}
    ]},
    {"system": "T-47D breast", "experiment": "DTP human tumour cell line panel, 48 h", "units": {"GI50": "µM", "TGI": "µM"}, "values": [
      {"smiles": "COc1ccc(OC)c(NCC(=O)n2nc(/C=C\\c3ccc(O)c(OC)c3)cc2/C=C\\c2ccc(O)c(OC)c2)c1", "GI50": 3.05, "TGI": 14.6},
      {"smiles": "CC(Br)C(=O)NC(CO)C(=O)O", "note": "(centres undefined)", "TGI": "> 100"},
      {"smiles": "COc1ccc(OC)c(/C=C/c2nc(=S)n(-c3ccc(Cl)cc3)[nH]2)c1", "GI50": 4.51, "TGI": "> 100"},
      {"smiles": "CCn1cc(C(=O)O)c(=O)c2cc(F)c(N3CCN(S(=O)(=O)c4cccc5ccccc45)CC3)cc21", "GI50": 3.35, "TGI": "> 100"},
      {"smiles": "CCn1c2c(c3ccccc3c1=O)C(=O)c1ccccc1-2", "TGI": "> 100"},
      {"smiles": "O=[N+]([O-])c1ccc(Cl)c2c([N+](=O)[O-])cccc12", "TGI": "> 10"},
      {"smiles": "N#Cc1nc2c(S(=O)(=O)c3ccc(Cl)cc3)c(N)n(Nc3cccc(Cl)c3)c2nc1C#N", "GI50": 0.0258},
      {"smiles": "COC(=O)OC1C(O[C@H]2C[C@H]3[C@@H]4CC=C5C[C@@H](O)CC[C@]5(C)[C@H]4CC[C@]3(C)[C@H]2[C@H](C)C(=O)CCC(C)C)OCC(O)C1OC1OCC(O)C(O)C1OC(=O)c1ccc(OC)cc1", "note": "(some centres undefined)", "GI50": 0.0209, "TGI": 0.647}
    ]},
    {"system": "TK-10 renal", "experiment": "DTP human tumour cell line panel, 48 h", "units": {"GI50": "µM", "TGI": "µM"}, "values": [
      {"smiles": "COc1ccc(OC)c(NCC(=O)n2nc(/C=C\\c3ccc(O)c(OC)c3)cc2/C=C\\c2ccc(O)c(OC)c2)c1", "GI50": 4.66, "TGI": 30.1},
      {"smiles": "Cc1nc2ccccc2nc1CC(=O)C(=O)Nc1ccc(Cl)cc1Cl", "TGI": "> 100"},
      {"smiles": "CC(Br)C(=O)NC(CO)C(=O)O", "note": "(centres undefined)", "TGI": "> 100"},
      {"smiles": "COc1cc(Nc2cnc3ccc(C(F)(F)F)cc3n2)cc(OC)c1OC", "TGI": "> 100"},
      {"smiles": "O=C1[C@@H]2C(c3c(Cl)cccc3Cl)=NO[C@@H]2C(=O)N1c1ccc(Cc2ccc(N3C(=O)[C@H]4C(c5c(Cl)cccc5Cl)=NO[C@H]4C3=O)cc2)cc1", "TGI": "> 100"},
      {"smiles": "O=C1NC2=C(CCCCC/C2=N\\O)C12CCCCCC2", "TGI": "> 100"},
      {"smiles": "CCc1cccc(C)c1NC(=O)CCc1nc(=S)[nH][nH]1", "TGI": "> 100"},
      {"smiles": "N#C/C(=C\\c1cc(OCc2ccccc2)c(OCc2ccccc2)cn1)C(N)=O", "TGI": "> 100"}
    ]}
  ]
}
